Assay results published in patent US20140343000A1 (priority 2011, published 2014).

Each compound was assayed on recombinant NL4-3 virus (Renilla luciferase in nef, Gag P373S; NLRluc) in MT-2 cells (assay: whole plant or invertebrate). Conditions: Renilla, NL43, luciferase activity in cells infected for 4-5 days with NLRluc recombinants, serial dilutions of inhibitor; class symbols (key in Table 1); read-out: EC50.
Assay type: cell-based, HIV
Experimental: MT-2 cells and 293T cells were obtained from the NIH AIDS Research and Reference Reagent Program. MT-2 cells were propagated in RPMI 1640 media supplemented with 10% heat inactivated fetal bovine serum, […]. The 293T cells were propagated in DMEM media supplemented with 10% heat inactivated fetal bovine serum (FBS), 100 units/ml penicillin G and 100 μg/ml streptomycin. The proviral DNA clone of NL4-3 was obtained from the NIH AIDS Research and Reference Reagent Program. A recombinant NL4-3 virus, in which a section of the nef gene from NL4-3 was replaced with the Renilla luciferase gene, was used as a reference virus. In addition, residue Gag P373 was converted to P373S. Briefly, the recombinant virus was prepared by transfection of the altered proviral clone of NL4-3. Transfections were performed in 293T cells using LipofectAMINE PLUS from Invitrogen (Carlsbad, Calif.), according to manufacturer's instruction. The virus was titered in MT-2 cells using luciferase enzyme activity as a marker. Luciferase was quantitated using the Dual Luciferase kit from Promega (Madison, Wis.), with modifications to the manufacturer's protocol. The diluted Passive Lysis solution was pre-mixed with the re-suspended Luciferase Assay Reagent and the re-suspended Stop & Glo Substrate (2:1:1 ratio). Fifty (50) μL of the mixture was added to each aspirated well on assay plates and luciferase activity was measured immediately on a Wallac TriLux (Perkin-Elmer). Antiviral activities of inhibitors toward the recombinant virus were quantified by measuring luciferase activity in cells infected for 4-5 days with NLRluc recombinants in the presence serial dilutions of the inhibitor. Table 1 is the key for the data in Table 2.

Compound	EC50 [nM]
C=C(C)[C@@H]1CC[C@]2(NC(=O)N[C@H](C)C(=O)O)CC[C@]3(C)[C@H](CC[C@@H]4[C@@]5(C)CC=C(c6ccc(C(=O)O)cc6)C(C)(C)[C@@H]5CC[C@]43C)[C@@H]12 [Example 19, 4-((1R,3aS,5aR,5bR,7aR,11aS,11bR,13aR,13bR)-3a-(3-((R)-1-carboxyethyl)ureido)-5a,5b,8,8,11a-pentamethyl-1-(prop-1-en-2-yl)-2,3,3a,4,5,5a,5b,6,7,7a,8,11,11a,11b,12,13,13a,13b-octadecahydro-1H-cyclopenta[a]chrysen-9-yl)benzoic acid]	< 100
C=C(C)[C@@H]1CC[C@]2(NC(=O)NCCN3CCS(=O)(=O)CC3)CC[C@]3(C)[C@H](CC[C@@H]4[C@@]5(C)CC=C(c6ccc(C(=O)O)cc6)C(C)(C)[C@@H]5CC[C@]43C)[C@@H]12 [Example 21, 4-((1R,3aS,5aR,5bR,7aR,11aS,11bR,13aR,13bR)-3a-(((2-(1,1-dioxido-4-thiomorpholinyl)ethyl)carbamoyl)amino)-1-isopropenyl-5a,5b,8,8,11a-pentamethyl-2,3,3a,4,5,5a,5b,6,7,7a,8,11,11a,11b,12,13,13a,13b-octadecahydro-1H-cyclopenta[a]chrysen-9-yl)benzoic acid]	< 100
C=C(C)[C@@H]1CC[C@]2(NC(=O)NCCCN3CCS(=O)(=O)CC3)CC[C@]3(C)[C@H](CC[C@@H]4[C@@]5(C)CC=C(c6ccc(C(=O)O)cc6)C(C)(C)[C@@H]5CC[C@]43C)[C@@H]12 [Example 22, 4-((1R,3aS,5aR,5bR,7aR,11aS,11bR,13aR,13bR)-3a-(((3-(1,1-dioxido-4-thiomorpholinyl)propyl)carbamoyl)amino)-1-isopropenyl-5a,5b,8,8,11a-pentamethyl-2,3,3a,4,5,5a,5b,6,7,7a,8,11,11a,11b,12,13,13a,13b-octadecahydro-1H-cyclopenta[a]chrysen-9-yl)benzoic acid]	< 100
C=C(C)[C@@H]1CC[C@]2(NC(=O)NCCN(C)CCO)CC[C@]3(C)[C@H](CC[C@@H]4[C@@]5(C)CC=C(c6ccc(C(=O)O)cc6)C(C)(C)[C@@H]5CC[C@]43C)[C@@H]12 [Example 23, 4-((1R,3aS,5aR,5bR,7aR,11aS,11bR,13aR,13bR)-3a-(3-(2-((2-hydroxyethyl)(methyl)amino)ethyl)ureido)-5a,5b,8,8,11a-pentamethyl-1-(prop-1-en-2-yl)-2,3,3a,4,5,5a,5b,6,7,7a,8,11,11a,11b,12,13,13a,13b-octadecahydro-1H-cyclopenta[a]chrysen-9-yl)benzoic acid]	< 100

Same assay, conditions: Renilla, NL43, luciferase activity in cells infected for 4-5 days with NLRluc recombinants, serial dilutions of inhibitor; numeric values; read-out: EC50

Compound	EC50 [nM]
C=C(C)[C@@H]1CC[C@]2(NC(=O)N[C@@H](CO)C(=O)O)CC[C@]3(C)[C@H](CC[C@@H]4[C@@]5(C)CC=C(c6ccc(C(=O)O)cc6)C(C)(C)[C@@H]5CC[C@]43C)[C@@H]12 [Example 18, 4-((1R,3aS,5aR,5bR,7aR,11aS,11bR,13aR,13bR)-3a-(3-((S)-1-carboxy-2-hydroxyethyl)ureido)-5a,5b,8,8,11a-pentamethyl-1-(prop-1-en-2-yl)-2,3,3a,4,5,5a,5b,6,7,7a,8,11,11a,11b,12,13,13a,13b-octadecahydro-1H-cyclopenta[a]chrysen-9-yl)benzoic acid]	250
C=C(C)[C@@H]1CC[C@]2(NC(=O)N[C@H](CO)C(=O)O)CC[C@]3(C)[C@H](CC[C@@H]4[C@@]5(C)CC=C(c6ccc(C(=O)O)cc6)C(C)(C)[C@@H]5CC[C@]43C)[C@@H]12 [Example 20, 4-((1R,3aS,5aR,5bR,7aR,11aS,11bR,13aR,13bR)-3a-(3-((R)-1-carboxy-2-hydroxyethyl)ureido)-5a,5b,8,8,11a-pentamethyl-1-(prop-1-en-2-yl)-2,3,3a,4,5,5a,5b,6,7,7a,8,11,11a,11b,12,13,13a,13b-octadecahydro-1H-cyclopenta[a]chrysen-9-yl)benzoic acid]	400
